What was measured:
[1] = DPPH radical scavenging experiment; assay type: biochemical; conditions: for DPPH Radical Scavenging Rate: 500 mg/L aqueous sample solution mixed 1:1 with 0.04 mg/ml DPPH ethanol solution, dark, 517 nm
Text: Free radicals play a significant role, either directly or indirectly, in oxidative processes and are widely involved in the physiological and pathological processes of the body. When the body has an excess of free radicals, the body damage can be caused by free radicals through oxidative actions. Phenolic compounds, being donors of phenolic hydroxyl groups, form the structural basis for antioxidant activity. This experiment employs the DPPH [1,1-Diphenyl-2-trinitrophenyl hydrazine, also known as 1,1-Diphenyl-2-picrylhydrazyl, (free radical)] radical scavenging reaction to study the scavenging efficiency of α-salidroside and β-salidroside on DPPH radicals. • (1) α-salidroside solution: prepared as a 500 mg/L aqueous solution using conventional methods. • (2) β-salidroside solution: prepared as a 500 mg/L aqueous solution using conventional methods. • (3) DPPH ethanol solution: prepared as a 0.04 mg/ml solution in anhydrous ethanol using conventional methods. • (1) 0.9 mL each of α-salidroside solution and β-salidroside aqueous solution were taken separately, and 0.9 mL of DPPH anhydrous ethanol solution was added to each, mixed well, and then left to stand in the dark. Samples were taken at 0.5 h, 1 h, 2 h, and 4 h respectively, and the absorbance was measured at a wavelength of 517 nm. The average of three parallels was calculated and noted as Ai. • (2) 0.9 mL each of α-salidroside solution and β-salidroside aqueous solution were taken separately, and 0.9 mL of anhydrous ethanol was added to each, mixed well, and then left to stand in the dark […]. Samples were taken at 0.5 h, 1 h, 2 h, and 4 h respectively, and the absorbance was measured at a wavelength of 517 nm. The average of three parallels was calculated and noted as Aj. • (3) 0.9 mL of distilled water was taken, to which 0.9 mL of DPPH ethanol solution was added, mixed well, and the absorbance was measured at a wavelength of 517 nm. The average of three parallels was calculated and noted as A4. • (4) 0.9 mL of anhydrous ethanol was taken, to which 0.9 mL of distilled water was added, mixed well, and was used as a blank. The DPPH radical scavenging rate was calculated according to the formula below, and the results were recorded in Table 3. [formula]

[2] = Hydroxyl radical scavenging experiment (Fenton reaction, 1,10-phenanthroline spectrophotometry); assay type: biochemical; conditions: for Hydroxyl Radical Scavenging Rate: 37° C., 30 minutes, 536 nm
Text: The Hydroxyl Radical Scavenging Activity is an important indicator for measuring the antioxidant capacity of substances. Currently, the main analytical testing methods for hydroxyl radicals include High Performance Liquid Chromatography, Chemiluminescence, Fluorescence Analysis, and Spectrophotometry, etc. Among them, the most commonly used method for measuring the hydroxyl radical scavenging activity is Spectrophotometry, which can be used to determine the inhibition of the absorbance decline of the colorant 1,10-Phenanthroline by the sample, thereby reflecting the ability of the sample to scavenge hydroxyl radicals. The measurement principle is as follows: H2O2/Fe^2+ produces hydroxyl radicals through the Fenton reaction, oxidizing Fe^2+ in the 1,10-Phenanthroline-Fe^2+ aqueous solution to Fe^3+, leading to a decline in the absorbance at 536 nm. The degree to which the sample inhibits the rate of absorbance decline at 536 nm reflects the ability of the sample to scavenge hydroxyl radicals.
• (1) FeSO4 Solution: 1.5 mM and 5 mM FeSO4 aqueous solutions were prepared using conventional methods. • (2) PBS Buffer: • 1) 0.2 mol/L sodium dihydrogen phosphate and 0.2 mol/L disodium hydrogen phosphate aqueous solutions were prepared. • 2) 19 mL of sodium dihydrogen phosphate aqueous solution and 81 mL of disodium hydrogen phosphate aqueous solution were taken, mixed well, and the pH was adjusted to 7.4 (measured with a pH meter, and the pH value was adjusted with 0.1 mol/L sodium hydroxide or 0.1 mol/L phosphoric acid if necessary). • (3) 1,10-Phenanthroline: 0.75 mM and 3 mM aqueous solutions were prepared using conventional methods. • (4) Hydrogen Peroxide (H2O2) Solution: 0.1% (v/v) aqueous solution was prepared using conventional methods. • (5) α-salidroside Solution: 1 mg/mL and 4 mg/mL aqueous solutions were prepared using conventional methods. • (6) β-salidroside Solution: 1 mg/mL and 4 mg/mL aqueous solutions were prepared using conventional methods.
Scheme 1: Using 5 mM FeSO4 aqueous solution, 0.1% hydrogen peroxide, 1 mg/mL α-salidroside aqueous solution or 1 mg/mL β-salidroside aqueous solution, and 3 mM 1,10-Phenanthroline aqueous solution, the following operation steps were carried out for the reaction.
Scheme 2: Using 1.5 mM FeSO4 aqueous solution, 0.1% hydrogen peroxide, 4 mg/mL α-salidroside aqueous solution or 4 mg/mL β-salidroside aqueous solution, and 0.75 mM 1,10-Phenanthroline aqueous solution, the following operation steps were carried out for the reaction.
Specific Operation Steps: (1) 40 μL of α-salidroside solution or β-salidroside solution was taken separately, to which 40 μL of FeSO4 solution, 60 μL of PBS buffer solution (pH 7.4), and 40 μL of 1,10-Phenanthroline solution were added respectively, mixed well. Then, 40 μL of H2O2 solution was added and mixed well again. […] Using distilled water as blank, the absorbance at 536 nm wavelength was measured and the average of three parallels was calculated and noted as Ai.
(2) 80 μL of distilled water was taken, to which 40 μL of FeSO4 solution, 60 μL of PBS buffer solution (pH 7.4), and 40 μL of 1,10-Phenanthroline solution were added and mixed well. […] Using distilled water as blank, the absorbance at 536 nm wavelength was measured and the average of three parallels was calculated and noted as Aj. […] Using distilled water as blank, the absorbance at 536 nm wavelength was measured and the average of three parallels was calculated and noted as A0.

[3] = Scheme 1: 1 mg/mL sample solution, 5 mM FeSO4, 0.1% hydrogen peroxide, 3 mM 1,10-Phenanthroline
[4] = Scheme 2: 4 mg/mL sample solution, 1.5 mM FeSO4, 0.1% hydrogen peroxide, 0.75 mM 1,10-Phenanthroline

SMILES | DPPH Radical Scavenging Rate ([1]; 0.5 h) [%] | DPPH Radical Scavenging Rate ([1]; 1 h) [%] | DPPH Radical Scavenging Rate ([1]; 2 h) [%] | DPPH Radical Scavenging Rate ([1]; 4 h) [%] | capability of scavenging DPPH radicals compared to β-salidroside ([1]; in words, from Table 3, especially when the reaction time is over 1 hour) | Hydroxyl Radical Scavenging Rate [2, 3] [%] | Hydroxyl Radical Scavenging Rate [2, 4] [%] | capability in scavenging hydroxyl radicals compared to β-salidroside ([2]; in words, from Table 4, both schemes)
OC[C@H]1O[C@H](OCCc2ccc(O)cc2)[C@H](O)[C@@H](O)[C@@H]1O [α-salidroside, 2-(4-hydroxyphenyl) ethyl-α-D-glucopyranoside] | 19.29 | 28.45 | 31.00 | 34.12 | higher capability of scavenging DPPH radicals compared to β-salidroside | 28.69 | 21.62 | far superior to that of β-salidroside
OC[C@H]1O[C@@H](OCCc2ccc(O)cc2)[C@H](O)[C@@H](O)[C@@H]1O [β-salidroside, reference compound] | 19.96 | 23.21 | 28.24 | 28.33 |  | 13.92 | 4.05 | 
